Laboratory results reported in patent US12351556B2, “Pyridin-2(1H)one derivatives, their preparation and their use for the treatment of pain” (INSTITUT NATIONAL DE LA SANTE ET DE LA RECHERCHE MEDICALE …, priority 2019, dated 2025).
Entries after “also recorded” stand apart in the source; their conditions may differ. Like-named read-outs stand apart in the source and are kept apart here.

Experiments:
[1] = tested on: inflammatory MA (face CFA model); assay: Face Complete Freund's Adjuvant (CFA) model of inflammatory mechanical allodynia; assay type: in vivo; settings: rat, intracisternal 5 μL at 100 μM; for prevention of inflammatory MA (allodynic score, 6-g von Frey filament): 30 min before CFA
Protocol: FIG. 1 illustrates the results obtained by the intracisternal application of compounds 19-24, 66-72 and 74-82. These compounds prevent face MA in a rat model of inflammatory pain (Complete Freund's Adjuvant (CFA), n=4-6 rats for each compound). For this assay, compounds (5 μL at 100 μM) or control vehicle were intra-cisternally administred 30 min before CFA injection.
Face Complete Freund's Adjuvant (CFA) Model.
CFA (Becton Dickinson) was dissolved in saline solution containing Tween 80 and paraffin oil and conserved at 4° C. For the behavioral tests, animals were briefly (<2 min) anesthetized using a mask with 2% isoflurane and received a subcutaneous injection of 25 μL of CFA (2.5 mg/kg) solution into the right vibrissa pad using a 27 Ga needle coupled to a 25 μL Hamilton syringe, as described previously. After injection, animals were awakened from anesthesia and placed in the behavioral experimental room, followed by a 120 min mechanical testing period.
Intracisternal Injection:
For investigating the effects of synthetized compounds upon mechanical allodynia, animals were briefly (<2 min) anesthetized using a mask with 2% isoflurane and received an intracisternal injection of 5 μL of compound (100 μM) or vehicle alone (saline+1% DMSO) using a 10 μL Hamilton syringe. After recovery (<2 min), rats were placed in an observation field (0.6×0.6 m square) under red light for a period test. 6-g von Frey filament was gently applied every 15 or 30 min onto the orofacial region by a first experimenter. The behavioral responses were observed and quantified by a second experimenter (see below).
Behavioral Responses to Normally Innocuous (6-g Von Frey Filament) Mechanical Stimulation.
The behavioral responses procedure was previously developed by Vos et al. 1994. A rat's response to mechanical stimulation consisted of one or more of the following elements: (1) detection, rat turn head toward stimulus; (2) withdrawal reaction, rat pull paw away or turn head away or pull it briskly backward when stimulation is applied (a withdrawal reaction is assumed to include a detection element preceding the head withdrawal and therefore consists of two responses elements); (3) escape/attack, rats avoid further contact with the stimulus, either passively by moving their bodies away from the stimulus, or actively by attacking the tip of the […]; (4) asymmetric grooming, rats display an uninterrupted series of at least three wash strokes directed to the stimulated area.
The in vivo efficacy of some compounds was evaluated on a rat model of inflammatory MA (face CFA model; Alba-Delgado et al J. Neurosci. 2018, 38, 10489-10504) (FIG. 1). After receiving a subcutaneous injection of 25 μL of CFA (2.5 mg/kg) into the right vibrissa pad, rats develop a MA that lasts days. […] In this model of inflammatory MA, MA was suppressed in compound 69 treated rats, in comparison to animals treated with vehicle (FIG. 2A).

p38α MAPK = p38α MAPK (Homo sapiens (Human), UniProt Q16539); assay: p38 alpha IC50; assay type: biochemical
Protocol: (§1) Studies were undertaken to identify the possible biological target(s) of compound 69. The activation in neurons of PK such as PKCγ, ERK or p38 MAPK can contribute to pain hypersensitivity. Therefore, it was decided to screen compound 69 toward a panel of 50 PKs that provide a representative sampling of the human kinome (FIG. 3, Table 3) (Biochem. J. 2007, 408, 297-315). In this panel, p38α MAPK was identified as the privileged target, with 19% of kinase residual activity at 10 μM compound concentration.
(§2) The selectivity of compound 69 was evaluated at 1 μM toward another panel containing all four p38 MAPK isoforms, ERK1, ERK2 as well as other protein kinases close to p38α MAPK in the kinome phylogenetic tree (FIG. 4, Table 4). […] Its IC50 toward p38α MAPK was determined, showing a value in the micromolar range (IC50=3.0±0.1 μM).

JNK1 = JNK1 (Homo sapiens (Human), UniProt P45983); assay: ICKP protein kinase panel screening; assay type: biochemical; settings: 1 μM, duplicate assays, read-out: mean % residual activity
Protocol: (§3) FIG. 3 illustrates the human kinome. Compound 69 was evaluated at the International Center For Kinase Profiling (ICKP, Dundee, Scotland) toward a panel of 50 protein kinases that provide a representative sampling of the human kinome. The results were expressed as the mean percentage of residual activity at 10 μM concentration (duplicate assays). Small disks: ≥65%, larger disk: 19%. The black square indicates the kinome region containing protein kinases evaluated in a second screening (FIG. 4, Table 4). The tree was generated using the Kinome Render software, and the illustration reproduced courtesy of Cell Signaling Technology, Inc. (www.cellsignal.com) Chartier et al PeerJ 2013, 1:e126.
(§4) FIG. 4 illustrates the studies carried out for compounds 67 and 69. Compounds 67 and 69 (FIG. 4B) were evaluated at the International Center For Kinase Profiling (ICKP, Dundee, Scotland) toward a panel of 13 protein kinases. The results (FIG. 4A) were expressed as the mean percentage of residual activity at 1 μM concentration (duplicate assays). Small disks: ≥90%, larger disk: 59%, for both compounds. The tree was generated using the Kinome Render software, and the illustration reproduced courtesy of Cell Signaling Technology, Inc. (www.cellsignal.com) Chartier et al PeerJ 2013, 1:e126.
(§5) Results are expressed as the mean percentage of residual activity at 10 μM (Table 3) or 1 μM (Table 4). They are illustrated on FIGS. 3 and 4.
as §1, §2

p38a MAPK = p38a MAPK (Homo sapiens (Human), UniProt Q16539); assay: ICKP protein kinase panel screening; assay type: biochemical; settings: 1 μM, duplicate assays, read-out: mean % residual activity
Protocol: as §3, §4, §5, §1, §2

CDK2-Cyclin A = CDK2-Cyclin A (Homo sapiens (Human), UniProt P24941); assay: ICKP protein kinase panel screening; assay type: biochemical; settings: duplicate assays, read-out: mean % residual activity
Protocol: as §4, §5, §2

CDK5 = CDK5 (Homo sapiens (Human), UniProt Q00535); assay: ICKP protein kinase panel screening; assay type: biochemical; settings: duplicate assays, read-out: mean % residual activity
Protocol: as §4, §5, §2

ERK1 = ERK1 (Homo sapiens (Human), UniProt P27361); assay: ICKP protein kinase panel screening; assay type: biochemical; settings: duplicate assays, read-out: mean % residual activity
Protocol: as §4, §5, §2

ERK2 = ERK2 (Homo sapiens (Human), UniProt P28482); assay: ICKP protein kinase panel screening; assay type: biochemical; settings: duplicate assays, read-out: mean % residual activity
Protocol: as §4, §5, §2

ERK5 = ERK5 (Homo sapiens (Human), UniProt Q13164); assay: ICKP protein kinase panel screening; assay type: biochemical; settings: duplicate assays, read-out: mean % residual activity
Protocol: as §4, §5, §2

ERK8 = ERK8 (Homo sapiens (Human), UniProt Q8TD08); assay: ICKP protein kinase panel screening; assay type: biochemical; settings: duplicate assays, read-out: mean % residual activity
Protocol: as §4, §5, §2

JNK2 = JNK2 (Homo sapiens (Human), UniProt P45984); assay: ICKP protein kinase panel screening; assay type: biochemical; settings: duplicate assays, read-out: mean % residual activity
Protocol: as §4, §5, §2

JNK3 = JNK3 (Homo sapiens (Human), UniProt P53779); assay: ICKP protein kinase panel screening; assay type: biochemical; settings: duplicate assays, read-out: mean % residual activity
Protocol: as §4, §5, §2

p38b MAPK = p38b MAPK (Homo sapiens (Human), UniProt Q15759); assay: ICKP protein kinase panel screening; assay type: biochemical; settings: duplicate assays, read-out: mean % residual activity
Protocol: as §4, §5, §2

p38d MAPK = p38d MAPK (Homo sapiens (Human), UniProt O15264); assay: ICKP protein kinase panel screening; assay type: biochemical; settings: duplicate assays, read-out: mean % residual activity
Protocol: as §4, §5, §2

p38g MAPK = p38g MAPK (Homo sapiens (Human), UniProt P53778); assay: ICKP protein kinase panel screening; assay type: biochemical; settings: duplicate assays, read-out: mean % residual activity
Protocol: as §4, §5, §2

[2] = tested on: panel of 13 protein kinases; assay: ICKP screening, whole panel of 13 protein kinases; assay type: biochemical, human; settings: 1 μM
Protocol: as §4, §5, §2

Sequence of p38α MAPK (Q16539 whole entry): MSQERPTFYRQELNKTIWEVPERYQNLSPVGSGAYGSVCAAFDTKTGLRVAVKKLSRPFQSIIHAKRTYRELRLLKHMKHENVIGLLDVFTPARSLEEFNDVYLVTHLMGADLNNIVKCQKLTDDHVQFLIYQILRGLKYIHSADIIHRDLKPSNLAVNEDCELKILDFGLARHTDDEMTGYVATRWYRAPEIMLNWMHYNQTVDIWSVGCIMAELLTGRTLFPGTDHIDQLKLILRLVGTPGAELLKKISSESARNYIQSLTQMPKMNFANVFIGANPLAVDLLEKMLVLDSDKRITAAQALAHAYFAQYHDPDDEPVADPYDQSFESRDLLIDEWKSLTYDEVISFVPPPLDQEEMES
Sequence of ERK5 (Q13164 whole entry): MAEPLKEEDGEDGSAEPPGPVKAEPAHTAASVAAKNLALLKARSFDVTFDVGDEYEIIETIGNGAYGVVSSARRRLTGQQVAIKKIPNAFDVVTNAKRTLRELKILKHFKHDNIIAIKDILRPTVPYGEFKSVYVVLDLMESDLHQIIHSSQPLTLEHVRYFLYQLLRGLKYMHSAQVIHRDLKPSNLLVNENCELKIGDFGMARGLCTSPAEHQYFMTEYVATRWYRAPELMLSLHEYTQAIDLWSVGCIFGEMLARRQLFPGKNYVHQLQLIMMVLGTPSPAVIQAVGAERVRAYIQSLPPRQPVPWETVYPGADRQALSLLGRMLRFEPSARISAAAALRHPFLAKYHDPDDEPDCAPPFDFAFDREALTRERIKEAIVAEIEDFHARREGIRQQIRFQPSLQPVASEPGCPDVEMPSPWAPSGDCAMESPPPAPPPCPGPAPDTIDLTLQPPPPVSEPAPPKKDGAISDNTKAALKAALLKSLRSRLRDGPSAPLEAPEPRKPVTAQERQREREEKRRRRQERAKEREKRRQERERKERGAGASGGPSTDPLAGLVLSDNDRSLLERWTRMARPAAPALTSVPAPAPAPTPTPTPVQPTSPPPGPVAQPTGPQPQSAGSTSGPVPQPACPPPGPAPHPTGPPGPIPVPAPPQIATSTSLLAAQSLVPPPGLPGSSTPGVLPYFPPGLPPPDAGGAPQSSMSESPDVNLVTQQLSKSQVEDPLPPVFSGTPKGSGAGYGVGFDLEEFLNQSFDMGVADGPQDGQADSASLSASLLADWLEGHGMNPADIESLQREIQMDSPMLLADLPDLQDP
Sequence of ERK2 (P28482 whole entry): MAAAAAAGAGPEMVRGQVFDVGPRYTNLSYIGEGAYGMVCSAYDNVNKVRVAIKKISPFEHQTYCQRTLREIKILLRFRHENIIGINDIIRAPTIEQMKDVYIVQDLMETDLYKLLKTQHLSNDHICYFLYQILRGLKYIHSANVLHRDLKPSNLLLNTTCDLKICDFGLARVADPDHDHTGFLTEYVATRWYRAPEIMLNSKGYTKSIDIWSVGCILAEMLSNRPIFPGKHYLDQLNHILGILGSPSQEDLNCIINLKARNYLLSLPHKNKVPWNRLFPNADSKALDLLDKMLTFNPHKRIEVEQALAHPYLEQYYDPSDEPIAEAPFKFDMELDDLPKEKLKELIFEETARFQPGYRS
Sequence of p38g MAPK (P53778 whole entry): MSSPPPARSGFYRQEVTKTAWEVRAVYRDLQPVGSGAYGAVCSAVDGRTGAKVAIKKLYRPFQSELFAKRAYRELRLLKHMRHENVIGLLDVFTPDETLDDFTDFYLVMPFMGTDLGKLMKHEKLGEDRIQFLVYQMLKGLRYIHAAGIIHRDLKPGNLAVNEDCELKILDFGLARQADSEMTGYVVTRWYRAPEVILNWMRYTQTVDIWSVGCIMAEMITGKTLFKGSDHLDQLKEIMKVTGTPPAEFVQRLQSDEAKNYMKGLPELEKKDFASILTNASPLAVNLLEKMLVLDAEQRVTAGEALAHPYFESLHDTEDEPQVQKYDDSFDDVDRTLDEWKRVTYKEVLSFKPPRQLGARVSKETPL
Sequence of p38a MAPK (Q16539 whole entry): as the sequence (Q16539 whole entry) above
Sequence of ERK8 (Q8TD08 whole entry): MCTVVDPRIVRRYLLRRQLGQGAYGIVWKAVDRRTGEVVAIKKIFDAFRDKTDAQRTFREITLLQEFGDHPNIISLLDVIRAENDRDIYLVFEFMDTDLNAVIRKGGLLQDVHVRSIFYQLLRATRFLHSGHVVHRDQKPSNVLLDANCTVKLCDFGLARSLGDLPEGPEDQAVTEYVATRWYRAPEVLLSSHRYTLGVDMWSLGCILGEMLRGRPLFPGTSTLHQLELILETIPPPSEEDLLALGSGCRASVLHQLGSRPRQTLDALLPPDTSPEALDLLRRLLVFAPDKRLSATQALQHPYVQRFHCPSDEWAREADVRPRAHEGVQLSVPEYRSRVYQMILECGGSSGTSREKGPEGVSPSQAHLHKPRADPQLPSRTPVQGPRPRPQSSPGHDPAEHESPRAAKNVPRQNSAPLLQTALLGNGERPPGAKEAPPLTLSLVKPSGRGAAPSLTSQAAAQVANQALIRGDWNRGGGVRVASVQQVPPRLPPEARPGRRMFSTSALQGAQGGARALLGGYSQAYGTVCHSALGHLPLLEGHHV
Sequence of ERK1 (P27361 whole entry): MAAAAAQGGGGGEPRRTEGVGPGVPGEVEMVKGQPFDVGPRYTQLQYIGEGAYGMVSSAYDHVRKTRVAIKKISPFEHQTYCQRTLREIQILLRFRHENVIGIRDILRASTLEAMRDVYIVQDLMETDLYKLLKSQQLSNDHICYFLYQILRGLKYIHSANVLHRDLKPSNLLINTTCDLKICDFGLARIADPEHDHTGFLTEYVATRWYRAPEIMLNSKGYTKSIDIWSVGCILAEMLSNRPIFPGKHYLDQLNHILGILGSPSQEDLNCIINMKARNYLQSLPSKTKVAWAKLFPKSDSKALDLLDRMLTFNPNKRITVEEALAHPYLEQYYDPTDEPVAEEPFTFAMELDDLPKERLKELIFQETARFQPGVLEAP
Sequence of JNK3 (P53779 whole entry): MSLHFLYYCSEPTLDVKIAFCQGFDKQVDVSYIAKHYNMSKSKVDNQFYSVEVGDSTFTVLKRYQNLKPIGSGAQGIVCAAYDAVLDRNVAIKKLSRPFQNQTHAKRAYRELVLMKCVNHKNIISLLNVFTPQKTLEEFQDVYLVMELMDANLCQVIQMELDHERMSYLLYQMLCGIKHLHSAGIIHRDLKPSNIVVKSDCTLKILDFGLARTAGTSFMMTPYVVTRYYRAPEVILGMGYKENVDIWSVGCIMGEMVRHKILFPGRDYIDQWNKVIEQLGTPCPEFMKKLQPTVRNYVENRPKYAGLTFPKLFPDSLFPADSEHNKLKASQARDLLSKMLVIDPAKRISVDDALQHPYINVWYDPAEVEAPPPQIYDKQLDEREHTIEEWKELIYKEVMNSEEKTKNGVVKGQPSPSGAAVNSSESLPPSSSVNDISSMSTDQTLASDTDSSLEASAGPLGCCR
Sequence of p38b MAPK (Q15759 whole entry): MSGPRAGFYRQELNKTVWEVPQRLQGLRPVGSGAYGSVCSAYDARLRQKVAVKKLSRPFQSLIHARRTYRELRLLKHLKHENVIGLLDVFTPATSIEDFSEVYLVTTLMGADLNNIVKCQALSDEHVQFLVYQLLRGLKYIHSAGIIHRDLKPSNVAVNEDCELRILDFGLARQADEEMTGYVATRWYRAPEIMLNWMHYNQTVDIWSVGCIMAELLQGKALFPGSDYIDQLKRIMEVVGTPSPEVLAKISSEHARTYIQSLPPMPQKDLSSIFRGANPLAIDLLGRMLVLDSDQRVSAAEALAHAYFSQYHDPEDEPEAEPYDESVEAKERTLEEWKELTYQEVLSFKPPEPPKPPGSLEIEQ
Sequence of CDK5 (Q00535 whole entry): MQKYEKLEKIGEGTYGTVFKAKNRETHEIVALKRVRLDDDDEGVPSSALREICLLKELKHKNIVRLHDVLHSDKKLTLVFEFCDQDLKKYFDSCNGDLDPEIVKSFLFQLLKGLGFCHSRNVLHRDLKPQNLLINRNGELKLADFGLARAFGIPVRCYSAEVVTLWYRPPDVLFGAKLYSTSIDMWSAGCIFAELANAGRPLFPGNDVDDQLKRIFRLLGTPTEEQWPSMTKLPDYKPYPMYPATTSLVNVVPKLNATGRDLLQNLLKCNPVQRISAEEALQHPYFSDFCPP
Sequence of CDK5 (Q15078 whole entry partner): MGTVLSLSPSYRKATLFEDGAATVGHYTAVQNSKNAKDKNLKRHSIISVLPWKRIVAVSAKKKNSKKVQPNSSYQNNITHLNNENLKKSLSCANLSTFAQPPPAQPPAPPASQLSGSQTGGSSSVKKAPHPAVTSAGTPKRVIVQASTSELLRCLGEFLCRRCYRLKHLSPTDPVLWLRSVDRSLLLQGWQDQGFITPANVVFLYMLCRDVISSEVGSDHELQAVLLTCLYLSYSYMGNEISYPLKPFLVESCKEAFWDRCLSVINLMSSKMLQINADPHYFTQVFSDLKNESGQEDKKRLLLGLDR
Sequence of p38d MAPK (O15264 whole entry): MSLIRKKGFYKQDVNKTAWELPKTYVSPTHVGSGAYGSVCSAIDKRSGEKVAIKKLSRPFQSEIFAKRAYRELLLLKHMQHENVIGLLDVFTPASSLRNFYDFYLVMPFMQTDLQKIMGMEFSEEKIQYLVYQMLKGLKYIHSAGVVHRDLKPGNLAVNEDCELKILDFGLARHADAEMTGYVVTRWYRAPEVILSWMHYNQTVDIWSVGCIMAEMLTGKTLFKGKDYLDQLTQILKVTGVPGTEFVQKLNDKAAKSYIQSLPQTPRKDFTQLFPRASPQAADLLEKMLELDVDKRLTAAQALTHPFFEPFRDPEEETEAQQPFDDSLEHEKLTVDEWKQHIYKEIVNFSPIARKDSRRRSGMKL

## O=c1[nH]cc(Nc2ccccc2)cc1-c1cncnc1 [Compound 24, 5-(Phenylamino)-3-(pyrimidin-5-yl)pyridin-2(1H)-one]
[1]
  prevention of inflammatory MA (allodynic score, 6-g von Frey filament): prevented the development of inflammatory MA

## CCOC(=O)c1ccccc1-c1cc(Nc2ccccc2)c[nH]c1=O [Compound 70, Ethyl 2-(2-oxo-5-(phenylamino)-1,2-dihydropyridin-3-yl)benzoate]
[1]
  prevention of inflammatory MA (allodynic score, 6-g von Frey filament): high activities

## CC(=O)c1cccc(-c2cc(Nc3ccccc3)c[nH]c2=O)c1 [Compound 75, 3-(3-Acetylphenyl)-5-(phenylamino)pyridin-2(1H)-one]
[1]
  prevention of inflammatory MA (allodynic score, 6-g von Frey filament): prevented the development of inflammatory MA

## O=c1[nH]cc(Nc2ccccc2)cc1-c1cccc2cccnc12 [Compound 23, 5-(Phenylamino)-3-(quinolin-8-yl)pyridin-2(1H)-one]
[1]
  prevention of inflammatory MA (allodynic score, 6-g von Frey filament): prevented the development of inflammatory MA

## O=c1[nH]cc(Nc2ccccc2)cc1-c1cccc2[nH]ccc12 [Compound 67, 3-(1H-Indol-4-yl)-5-(phenylamino)pyridin-2(1H)-one]
p38α MAPK; p38 alpha, read-out: Mean IC50
  IC50: 3.03 µM
p38α MAPK; read-out: IC50 toward p38α MAPK
  IC50: 3 ± 0.1 µM
JNK1
  remaining activity at 1 µM: 94%
p38a MAPK
  remaining activity at 1 µM: 59%
CDK2-Cyclin A
  remaining activity at 1 µM: 111%
CDK5
  remaining activity at 1 µM: 101%
ERK1
  remaining activity at 1 µM: 122%
ERK2
  remaining activity at 1 µM: 108%
ERK5
  remaining activity at 1 µM: 113%
ERK8
  remaining activity at 1 µM: 128%
JNK2
  remaining activity at 1 µM: 103%
JNK3
  remaining activity at 1 µM: 98%
p38b MAPK
  remaining activity at 1 µM: 112%
p38d MAPK
  remaining activity at 1 µM: 113%
p38g MAPK
  remaining activity at 1 µM: 107%
[2]; all kinases except p38α MAPK
  mean percentage of residual activity, other kinases of the panel (small disks): ≥ 90%
[2]; panel of 13 kinases
  selectivity for p38α MAPK over the other protein kinases incl. p38 isoforms: same selectivity profile; also recorded: selective p38α MAPK inhibitor
[1]
  prevention of inflammatory MA (allodynic score, 6-g von Frey filament): strong anti-allodynic activity; also recorded: most active
[1]; 30 min before CFA injection
  inhibition of inflammatory MA: 98%

## NC(=O)c1ccc(-c2cc(Nc3ccccc3)c[nH]c2=O)cc1 [Compound 81, 4-(2-Oxo-5-(phenylamino)-1,2-dihydropyridin-3-yl)benzamide]
[1]
  prevention of inflammatory MA (allodynic score, 6-g von Frey filament): prevented the development of inflammatory MA

## Cc1ccc(-c2cc(Nc3ccccc3)c[nH]c2=O)cc1 [Compound 77, 5-(Phenylamino)-3-(p-tolyl)pyridin-2(1H)-one]
[1]
  prevention of inflammatory MA (allodynic score, 6-g von Frey filament): prevented the development of inflammatory MA; also recorded: comparable gains of activity

## O=c1[nH]cc(Nc2ccccc2)cc1-c1ccc(OC(F)(F)F)cc1 [Compound 79, 5-(Phenylamino)-3-(4-(trifluoromethoxy)phenyl)pyridin-2(1H)-one]
[1]
  prevention of inflammatory MA (allodynic score, 6-g von Frey filament): prevented the development of inflammatory MA

## O=c1[nH]cc(Nc2ccccc2)cc1-c1ccc(F)cc1F [Compound 82, 3-(2,4-Difluorophenyl)-5-(phenylamino)pyridin-2(1H)-one]
[1]
  prevention of inflammatory MA (allodynic score, 6-g von Frey filament): prevented the development of inflammatory MA

## O=c1[nH]cc(Nc2ccccc2)cc1-c1ccccc1[N+](=O)[O-] [Compound 72, 3-(2-Nitrophenyl)-5-(phenylamino)pyridin-2(1H)-one]
[1]
  prevention of inflammatory MA (allodynic score, 6-g von Frey filament): prevented the development of inflammatory MA

## O=c1[nH]cc(Nc2ccccc2)cc1-c1ccncc1 [Compound 21, 5-(Phenylamino)-[3,4′-bipyridin]-2(1H)-one]
[1]
  prevention of inflammatory MA (allodynic score, 6-g von Frey filament): comparable gains of activity
